From patent US11498923B2 (Merck Sharp & Dohme Corp., priority 2017, dated 2022)

Target: T1, human A2a receptor (Homo sapiens, UniProt P29274)
T1 construct: purchased Perkin-Elmer RBHA2AM400UA; host or cells: HEK293 cells, used as a membrane preparation
Test: A2a receptor competition binding assay (Scintillation Proximity)
Conditions: membranes from HEK293 cells expressing human A2a receptor; 0.5 nM tritiated ligand; Cheng-Prusoff; read-out: A2a Ki
Protocol: Binding affinities of compounds of the invention for the human A2a receptor were determined in a competition binding assay using Scintillation Proximity technology. Thus, 0.3 μg of membranes from HEK293 cells expressing the human A2a receptor were incubated with a compound of the invention at concentrations ranging from 3000 nM to 0.15 nM in a reaction mixture containing also 0.5 nM of a tritiated form of 5-amino-7-[2-phenethyl]-2-(furan-2-yl)-7H-pyrazolo[4,3-e][1,2,4]triazolo[1,5-c]pyrimidine (the tritiated compound) and 100 μg of wheat germ agglutin-coated yttrium silicate SPA beads for one hour at room temperature with agitation. The beads were then allowed to settle to the bottom of the wells for 1 hr, after which the membrane-associated radioactivity was determined by scintillation counting in a TopCount microplate reader. Ki values were determined using the Cheng-Prusoff equation.
Summary of Materials and Methods Used in A2a Activity Determination:
HEK293 cells expressing the human, rat, dog or monkey adenosine 2a receptor (Purchased from Perkin-Elmer #RBHA2AM400UA).
The Tritiated compound was prepared according to published methods.
Wheat germ agglutinin-coated yttrium silicate SPA beads (GE Healthcare #RPNQ0023). Dilute to 25 mg/ml in assay buffer.
Assay Buffer was prepared using Dulbecco's calcium and magnesium free phosphate buffered saline+10 mMMgCl2
Adenosine deaminase from calf intestine, 10 mg/2 ml (Roche #10 102 105 001).
A2a antagonist standard (9-chloro-1-(2-furanyl)-[1,2,4]triazolo1,5-c]quinazolin-5-amine from Tocris Bioscience)
Make eight 1:3 serial dilutions in 100% DMSO from a 3 mM compound stock
Transfer 50 nl of compound into a 384-well OptiPlate (Perkin Elmer).
Typically, final concentrations of compound used in the assay ranged from 3000 nM to 0.152 nM.
Dilute a solution of the Tritiated compound to 1.25 nM in assay buffer. This is a 2.5× solution. The final concentration in the assay is 0.5 nM. Calculate the concentration by counting two 5 μl aliquots.
Use 0.25 ug of membrane/well. Dilute membranes to 9.7 μg/ml in assay buffer. Treat with 20 ug/ml adenosine deaminase (ADA) for 15 minutes at room temperature to degrade endogenous adenosine.
Use 100 μg/well wheat germ agglutinin-coated yttrium silicate SPA beads.
Mix ADA-treated membranes and SPA beads together for 30 min prior to assay.
To the Perkin-Elmer Optiplate-384 containing the compound titration add 20 μl of 2.5× solution of the Tritiated compound and 30 μl of the membrane-bead mixture. Incubate for one hour at room temperature with agitation.
Include total binding (assay buffer+1% DMSO) and non-specific binding (CGS15943, 1 μM) wells.
Allow the beads to settle for one hour.
A curve fitting program (i.e., Prism, Activity Base, Chemcart) is used to determine the EC50. The Ki value is calculated using the Cheng-Prusoff equation. Ki=EC50/(1+(radioligand concentration/Kd))

T1 sequence (P29274 whole entry): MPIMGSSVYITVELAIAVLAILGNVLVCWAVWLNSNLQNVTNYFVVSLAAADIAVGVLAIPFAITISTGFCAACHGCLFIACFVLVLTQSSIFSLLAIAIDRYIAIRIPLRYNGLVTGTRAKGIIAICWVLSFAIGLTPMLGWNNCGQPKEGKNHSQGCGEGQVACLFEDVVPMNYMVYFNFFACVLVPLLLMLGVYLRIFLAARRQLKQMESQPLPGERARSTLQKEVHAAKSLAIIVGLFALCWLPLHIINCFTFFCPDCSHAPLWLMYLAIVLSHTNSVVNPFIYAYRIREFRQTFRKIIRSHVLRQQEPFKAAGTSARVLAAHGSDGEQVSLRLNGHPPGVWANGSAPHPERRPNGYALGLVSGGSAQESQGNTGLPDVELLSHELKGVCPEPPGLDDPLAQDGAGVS

SMILES | Ki [nM]
COc1cccc2c1nc(N)n1cc(Cc3ccc(N4CCOCC4)nc3)nc21 [Ex-39, 7-methoxy-2-((6-morpholinopyridin-3-yl)methyl)imidazo[1,2-c]quinazolin-5-amine] | 9.8
COc1cccc2c1nc(N)n1cc(Cc3ccnc(N4CCOCC4)c3)nc21 [Ex-40, 7-methoxy-2-((2-morpholinopyridin-4-yl)methyl)imidazo[1,2-c]quinazolin-5-amine] | 10
COc1cccc2c1nc(N)n1cc(Cc3ccc(N4CCOCC4)cc3)nc21 [Ex-41, 7-methoxy-2-(4-morpholinobenzyl)imidazo[1,2-c]quinazolin-5-amine] | 15
COc1cccc2c1nc(N)n1cc(Cc3cccnc3F)nc21 [Ex-42, 2-((2-fluoropyridin-3-yl)methyl)-7-methoxyimidazo[1,2-c]quinazolin-5-amine] | 2.8
COc1cccc2c1nc(N)n1cc(Cc3cccnc3N3CCOCC3)nc21 [Ex-43, 7-methoxy-2-((2-morpholinopyridin-3-yl)methyl)imidazo[1,2-c]quinazolin-5-amine] | 5.2
COc1cccc2c1nc(N)n1cc(Cc3ccc(N4CCN(C(C)=O)CC4)cc3)nc21 [Ex-44, 1-(4-(4-((5-amino-7-methoxyimidazo[1,2-c]quinazolin-2-yl)methyl)phenyl)piperazin-1-yl)ethan-1-one] | 14
COc1cccc2c1nc(N)n1cc(Cc3ccc(N4CCN(C(C)=O)CC4)nc3)nc21 [Ex-45, 1-(4-(5-((5-amino-7-methoxyimidazo[1,2-c]quinazolin-2-yl)methyl)pyridin-2-yl)piperazin-1-yl)ethan-1-one] | 4.6
COc1cccc2c1nc(N)n1cc(Cc3ccnc(N4CCN(C(C)=O)CC4)c3)nc21 [Ex-46, 1-(4-(4-((5-amino-7-methoxyimidazo[1,2-c]quinazolin-2-yl)methyl)pyridin-2-yl)piperazin-1-yl)ethan-1-one] | 7.4
CC(=O)N1CCc2cc(Cc3cn4c(N)nc5c(F)cccc5c4n3)ccc2C1 [Ex-47, 1-(6-((5-amino-7-fluoroimidazo[1,2-c]quinazolin-2-yl)methyl)-3,4-dihydroisoquinolin-2(1H)-yl)ethan-1-one] | 5.9
CC(=O)N1CCc2ccc(Cc3cn4c(N)nc5c(F)cccc5c4n3)cc2C1 [Ex-48, 1-(7-((5-amino-7-fluoroimidazo[1,2-c]quinazolin-2-yl)methyl)-3,4-dihydroisoquinolin-2(1H)-yl)ethan-1-one] | 3
COc1cccc2c1nc(N)n1cc(Cc3cccnc3N3CCCC3)nc21 [Ex-49, 7-methoxy-2-((2-(pyrrolidin-1-yl)pyridin-3-yl)methyl)imidazo[1,2-c]quinazolin-5-amine] | 6.2
COc1cccc2c1nc(N)n1cc(Cc3cccnc3N3CCCCC3)nc21 [Ex-50, 7-methoxy-2-((2-(piperidin-1-yl)pyridin-3-yl)methyl)imidazo[1,2-c]quinazolin-5-amine] | 3.7
COc1cccc2c1nc(N)n1cc(Cc3cccnc3N3CCN(C)CC3)nc21 [Ex-51, 7-methoxy-2-((2-(4-methylpiperazin-1-yl)pyridin-3-yl)methyl)imidazo[1,2-c]quinazolin-5-amine] | 23.9
Nc1nc2c(F)cccc2c2nc(Cc3cccc4c3CCNC4)cn12 [Ex-52, 7-fluoro-2-((1,2,3,4-tetrahydroisoquinolin-5-yl)methyl)imidazo-[1,2-c]quinazolin-5-amine] | 11
CC(=O)N1CCc2c(Cc3cn4c(N)nc5c(F)cccc5c4n3)cccc2C1 [Ex-53, 1-(5-((5-amino-7-fluoroimidazo[1,2-c]quinazolin-2-yl)methyl)-3,4-dihydroisoquinolin-2(1H)-yl)ethan-1-one] | 3.7
N#Cc1ccc(N2CCc3c(Cc4cn5c(N)nc6c(F)cccc6c5n4)cccc3C2)nc1 [Ex-54, 6-(5-((5-amino-7-fluoroimidazo[1,2-c]quinazolin-2-yl)methyl)-3,4-dihydroisoquinolin-2(1H)-yl)nicotinonitrile] | 3.8
N#Cc1cccc(CC(=O)N2CCc3c(Cc4cn5c(N)nc6c(F)cccc6c5n4)cccc3C2)c1 [Ex-55, 3-(2-(5-((5-amino-7-fluoroimidazo[1,2-c]quinazolin-2-yl)methyl)-3,4-dihydroisoquinolin-2(1H)-yl)-2-oxoethyl)benzonitrile] | 5.1

SMILES | Ki [nM]
CCCN1CCc2c(Cc3cn4c(N)nc5c(F)cccc5c4n3)cccc2C1 [Ex-56, 7-fluoro-2-((2-propyl-1,2,3,4-tetrahydroisoquinolin-5-yl)melhyl)imidazo-[1,2-c]quinazolin-5-amine] | 16
Nc1nc2c(F)cccc2c2nc(Cc3cccc4c3CCN(CCc3ccccn3)C4)cn12 [Ex-57, 7-fluoro-2-((2-(2-(pyridin-2-yl)ethyl)-1,2,3,4-tetrahydroisoquinolin-5-yl)methyl)imidazo[1,2-c]quinazolin-5-amine] | 18
Nc1nc2c(F)cccc2c2nc(Cc3cccc4c3CCN(Cc3ccccn3)C4)cn12 [Ex-58, 7-fluoro-2-((2-(pyridin-2-ylmethyl)-1,2,3,4-tetrahydroisoquinolin-5-yl)methyl)imidazo[1,2-c]quinazolin-5-amine] | 9.9
COc1cccc2c1nc(N)n1cc(Cc3cccc4c3CCN(C(=O)Cc3ccc(F)c(F)c3)C4)nc21 [Ex-59, 1-(5-((5-amino-7-methoxyimidazo[1,2-c]quinazolin-2-yl)methyl)-3,4-dihydroisoquinolin-2(1H)-yl)-2-(3,4-difluorophenyl)ethan-1-one] | 2.9
COc1cccc2c1nc(N)n1cc(Cc3cccc4c3CCN(C(=O)CCC(F)(F)F)C4)nc21 [Ex-60, 1-(5-((5-amino-7-methoxyimidazo[1,2-c]quinazolin-2-yl)methyl)-3,4-dihydroisoquinolin-2(1H)-yl)-4,4,4-trifluorobutan-1-one] | 2
Cn1cc(-c2ccc(F)c3nc(N)n4cc(Cc5ccccc5)nc4c23)ccc1=O [Ex-61, 5-(5-amino-2-benzyl-7-fluoroimidazo[1,2-c]quinazolin-10-yl)-1-methylpyridin-2(1H)-one] | 27
COc1cccc2c1nc(N)n1cc(Cc3cccnc3N3CCC(c4ccccc4)CC3)nc21 [Ex-62, 7-methoxy-2-((2-(4-phenylpiperidin-1-yl)pyridin-3-yl)methyl)imidazo[1,2-c]quinazolin-5-amine] | 2.2
Nc1nc2c(F)cccc2c2nc(Cc3ccnc(N4CCN(c5nc6ccccc6o5)CC4)c3)cn12 [Ex-63, 2-((2-(4-(benzo[d]oxazol-2-yl)piperazin-1-yl)pyridin-4-yl)methyl)-7-fluoroimidazo[1,2-c]quinazolin-5-amine] | 102
Nc1nc2c(F)cccc2c2nc(Cc3ccc4c(c3)CN(Cc3ccccc3)C4)cn12 [Ex-65, 2-((2-benzylisoindolin-5-yl)methyl)-7-fluoroimidazo[1,2-c]quinazolin-5-amine] | 5.1
COCCOc1ccc(N2CCN(Cc3ccccc3Cc3cn4c(N)nc5c(OC)cccc5c4n3)CC2)cc1 [Ex-66, 7-methoxy-2-(2-((4-(4-(2-methoxyethoxy)phenyl)piperazin-1-yl)methyl)benzyl)imidazo[1,2-c]quinazolin-5-amine] | 11.5
COc1cccc2c1nc(N)n1cc(Cc3ccccc3CN3CCN(c4ccccc4)CC3)nc21 [Ex-67] | 2.2
Nc1nc2c(F)cccc2c2nc(Cc3ccccc3CN3CCN(c4ncccn4)CC3)cn12 [Ex-71, 7-fluoro-2-(2-((4-(pyrimidin-2-yl)piperazin-l-yl)methyl)benzyl) imidazo[1,2-c]quinazolin-5-amine] | 5.3
Nc1nc2c(F)cccc2c2nc(Cc3ccccc3CN3CCC(N4CCOCC4)CC3)cn12 [Ex-73] | 4.2
Nc1nc2c(F)cccc2c2nc(Cc3cccc(-c4cccnc4)c3)cn12 [Ex-74, 7-fluoro-2-(3-(pyridin-3-yl)benzyl)imidazo[1,2-c]quinazolin-5-amine] | 4.5
CC(c1ccc(-c2cccc(Cc3cn4c(N)nc5c(F)cccc5c4n3)c2)cc1)N1CCOCC1 (stereo not drawn) [Ex-75, 7-fluoro-2-((4′-(l-morpholinoethyl)-[1,1′-biphenyl]-3-yl)methyl)imidazo[1,2-c]quinazolin-5-amine] | 6
Nc1nc2c(F)cccc2c2nc(Cc3ccc(-c4ccc(F)cn4)cc3)cn12 [Ex-76, 7-fluoro-2-(4-(5-fluoropyridin-yl)benzyl)imidazo[1,2-c]quinazolin-5-amine] | 10
